Test results published in patent US10065951B2, “Small molecule transcription modulators of bromodomains” (Icahn School of Medicine at Mount Sinai, priority 2014, dated 2018).

Target: T1, CBP BRD (Homo sapiens, UniProt Q92793)
T1 construct: made in house
Experiment: In vitro fluorescence polarization-based competition binding assay
Details: within series 4a-d
Description: FIG. 1A is a line drawing of the florescence polarization competition assay measuring the binding affinity of compounds 4a-d to the CBP BRD. FIG. 1B provides the IC50 values of compounds 4a-d and MS7972. Results are representative of three independent experiments and the error is SD.
Expression and purification of the recombinant CBP BRD in poly-his tag form was conducted using the procedure as previously described (Mujtaba, S. et al., Mol Cell 13, 251-63 (2004)). The purified protein was confirmed with mass spectroscopy. Binding assays were performed with CBP BRD (5 μM) and fluorescent probe (10 nM), and increasing concentration of unlabeled competing ligand.

T1 sequence (Q92793 1085-1192 limits assumed): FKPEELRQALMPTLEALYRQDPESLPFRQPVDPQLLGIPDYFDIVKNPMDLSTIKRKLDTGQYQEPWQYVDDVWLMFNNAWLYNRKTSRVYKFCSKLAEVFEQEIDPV

Row | Compound | binding affinity to CBP BRD, in words
1 | CC(=O)NCCn1c2c(c3ccccc31)C(=O)NCC2 [4a, 2,3,4,5-tetrahydro-5-(2′-acetamidoethyl)-1H-pyrido-[4,3-b]indol-1-one] | lowest improvement of the series
2 | CC(=O)NCCCCCCn1c2c(c3ccccc31)C(=O)NCC2 [4d, 2,3,4,5-tetrahydro-5-(6′-acetamidohexyl)-1H-pyrido-[4,3-b]indol-1-one] | partial or total loss of the affinity
